Measurements published in patent publication US20260183301A1, “TREATING DISEASES AND DISORDERS WITH IRAK4-MODIFYING COMPOUNDS” (Curis, Inc., priority 2022, published 2026).
Entries after “also recorded” stand apart in the source; their conditions may differ.

Experiment: Phase I dose escalation trial in NHL: safety and tolerance (adverse effects, DLT)
[1] = 300 mg BID, N = 6, [E] not defined
[2] = 400 mg BID, N = 8, [E] not defined

Method: Seven dosing cohorts included 50 and 100 mg QD, and 50, 100, 200, 300, or 400 mg BID of daily continuous oral monotherapy in 21-Day cycles. Objective included safety and tolerance (primary), pk/pd and early efficacy (secondary), and biomarker correlations (exploratory). 31 patients with resistant or refractory, advanced NHL have been enrolled.

Cc1cc(-c2nc(C(=O)Nc3cc4oc(N5CCOCC5)nc4nc3N3CC[C@@H](O)C3)co2)ccn1 [Compound 1, emavusertib]
Oedema, Grade 3 or 4 (300 mg BID (n = 6)): 0%
Peripheral sensory neuropathy, All Grades (300 mg BID (n = 6)): 0%
Peripheral sensory neuropathy, Grade 3 or 4 (300 mg BID (n = 6)): 0%
Rhabdomyolysis, All Grades (300 mg BID (n = 6)): 0%
Rhabdomyolysis, Grade 3 or 4 (300 mg BID (n = 6)): 0%
Upper respiratory infection, All Grades (300 mg BID (n = 6)): 0%
Upper respiratory infection, Grade 3 or 4 (300 mg BID (n = 6)): 0%
Vomiting, All Grades (300 mg BID (n = 6)): 20%
Vomiting, Grade 3 or 4 (300 mg BID (n = 6)): 20%
Anemia, All Grades (300 mg BID, N = 6): 2 (33.3) n (%)
Anemia, Grade 3 or Higher (300 mg BID, N = 6): 0 n (%)
Neutropenia, All Grades (300 mg BID, N = 6): 1 (16.7) n (%)
Neutropenia, Grade 3 or Higher (300 mg BID, N = 6): 1 (16.7) n (%)
Thrombocytopenia, All Grades (300 mg BID, N = 6): 0 n (%)
Thrombocytopenia, Grade 3 or Higher (300 mg BID, N = 6): 0 n (%)
Anemia, All Grades [E] [1]: [3]
Neutropenia, All Grades [E] [1]: [5]
Neutropenia, Grade 3 or Higher [E] [1]: [1]
DLT (300 mg BID, six patients): without DLT
Back pain, All Grades (400 mg BID (n = 8)): 12.5%
Back pain, Grade 3 or 4 (400 mg BID (n = 8)): 0%
Constipation, All Grades (400 mg BID (n = 8)): 20%
Constipation, Grade 3 or 4 (400 mg BID (n = 8)): 0%
Cough, All Grades (400 mg BID (n = 8)): 0%
Cough, Grade 3 or 4 (400 mg BID (n = 8)): 0%
Dehydration, All Grades (400 mg BID (n = 8)): 12.5%
Dehydration, Grade 3 or 4 (400 mg BID (n = 8)): 0%
Diarrhea, All Grades (400 mg BID (n = 8)): 25%
Diarrhea, Grade 3 or 4 (400 mg BID (n = 8)): 0%
Dizziness, All Grades (400 mg BID (n = 8)): 25%
Dizziness, Grade 3 or 4 (400 mg BID (n = 8)): 0%
Dyspnoe, All Grades (400 mg BID (n = 8)): 12.5%
Dyspnoe, Grade 3 or 4 (400 mg BID (n = 8)): 12.5%
Fatigue, All Grades (400 mg BID (n = 8)): 50%
Fatigue, Grade 3 or 4 (400 mg BID (n = 8)): 0%
Headache, All Grades (400 mg BID (n = 8)): 12.5%
Headache, Grade 3 or 4 (400 mg BID (n = 8)): 0%
Insomnia, All Grades (400 mg BID (n = 8)): 12.5%
Insomnia, Grade 3 or 4 (400 mg BID (n = 8)): 0%
Muscle weakness, All Grades (400 mg BID (n = 8)): 12.5%
Muscle weakness, Grade 3 or 4 (400 mg BID (n = 8)): 0%
Myalgia, All Grades (400 mg BID (n = 8)): 37.5%
Myalgia, Grade 3 or 4 (400 mg BID (n = 8)): 0%
Nausea, All Grades (400 mg BID (n = 8)): 50%
Nausea, Grade 3 or 4 (400 mg BID (n = 8)): 0%
Oedema, All Grades (400 mg BID (n = 8)): 0%
Oedema, Grade 3 or 4 (400 mg BID (n = 8)): 0%
Peripheral sensory neuropathy, All Grades (400 mg BID (n = 8)): 25%
Peripheral sensory neuropathy, Grade 3 or 4 (400 mg BID (n = 8)): 0%
Rhabdomyolysis, All Grades (400 mg BID (n = 8)): 25%
Rhabdomyolysis, Grade 3 or 4 (400 mg BID (n = 8)): 25%
Upper respiratory infection, All Grades (400 mg BID (n = 8)): 12.5%
Upper respiratory infection, Grade 3 or 4 (400 mg BID (n = 8)): 0%
Vomiting, All Grades (400 mg BID (n = 8)): 25%
Vomiting, Grade 3 or 4 (400 mg BID (n = 8)): 0%
Anemia, All Grades (400 mg BID, N = 8): 1 (12.5) n (%)
Anemia, Grade 3 or Higher (400 mg BID, N = 8): 1 (12.5) n (%)
Neutropenia, All Grades (400 mg BID, N = 8): 2 (25.0) n (%)
Neutropenia, Grade 3 or Higher (400 mg BID, N = 8): 0 n (%)
Thrombocytopenia, All Grades (400 mg BID, N = 8): 1 (12.5) n (%)
Thrombocytopenia, Grade 3 or Higher (400 mg BID, N = 8): 1 (12.5) n (%)
Anemia, All Grades [E] [2]: [1]
Anemia, Grade 3 or Higher [E] [2]: [1]
Neutropenia, All Grades [E] [2]: [3]
Thrombocytopenia, All Grades [E] [2]: [2]
Thrombocytopenia, Grade 3 or Higher [E] [2]: [2]
DLT-evaluable patients with Grade 3 rhabdomyolysis (DLTs) (400 mg BID, reversible after treatment interruption): 2 of 5
Grade 3 combined episodes of neutropenia, anemia, thrombocytopenia (18 patients at 200 to 400 mg BID): 4
toxic deaths (Phase I NHL): No toxic deaths
overall safety and tolerance (Phase I NHL, 50 mg QD to 400 mg BID): well tolerated; also recorded: good safety and tolerance
creatine phosphokinase (CPK) elevation, grade (WM patient, 200 mg po BID, asymptomatic, resolved with exercise moderation): grade 2
tolerability (WM patient, continuous oral treatment for close to 18 months): well tolerated
tolerability (WM patient, first dose level 50 mg): without adverse events
safety and tolerability profile (at RP2D (300 mg BID)): acceptable safety and tolerability profile
grade of most non-hematologic TEAEs (diarrhea, vomiting, fatigue, dyspnea, myalgia): Grade 1 or 2
